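Tested at 5 concentrations; 48 h exposure; 96-well plates; endpoints linearly interpolated, else capped at highest concentration. GI50 is the concentration that inhibits growth by half.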 Activity calls are given as the source filed them. Rule as the data show it: active = GI50 up to about 1.1 µM and inactive = higher.
Assays:
Experiment in all cases: growth of human tumour cells (NCI), 48 h
SR = system: SR
IGROV-1 = system: IGROV-1
HOP-92 = system: HOP-92
HCT-15 = system: HCT-15
OVCAR-3 = system: OVCAR-3
SF-295 = system: SF-295
HCC 2998 = system: HCC 2998
COLO 205 = system: COLO 205
UACC-62 = system: UACC-62
SK-MEL-2 = system: SK-MEL-2
LOX IMVI = system: LOX IMVI
NCI-H23 = system: NCI-H23
SK-MEL-28 = system: SK-MEL-28
OVCAR-4 = system: OVCAR-4
HL-60 = system: HL-60
CCRF-CEM = system: CCRF-CEM
MDA-MB-435 = system: MDA-MB-435
Hs-578T = system: Hs-578T
NCI/ADR-RES = system: NCI/ADR-RES

SMILES	GI50 (SR)	GI50 (IGROV-1)	GI50 (HOP-92)	GI50 (HCT-15)	GI50 (OVCAR-3)	GI50 (SF-295)	GI50 (HCC 2998)	GI50 (COLO 205)	GI50 (UACC-62)	GI50 (SK-MEL-2)	GI50 (LOX IMVI)	GI50 (NCI-H23)	GI50 (SK-MEL-28)	GI50 (OVCAR-4)	GI50 (HL-60)	GI50 (CCRF-CEM)	GI50 (MDA-MB-435)	GI50 (Hs-578T)	GI50 (NCI/ADR-RES)
COC(=O)c1cc(C(=O)OC)c(CC(=O)C(=O)NC2C3CC4CC(C3)CC2C4)nc1CC(=O)C(=O)NC1C2CC3CC(C2)CC1C3 (stereo unspecified)	8.69 µM (inactive)	> 100 µM (inactive)	74.6 µM (inactive)	> 100 µM	> 100 µM (inactive)	> 100 µM (inactive)	> 100 µM (inactive)	> 100 µM (inactive)	> 100 µM (inactive)	> 100 µM (inactive)	> 100 µM (inactive)	> 100 µM (inactive)	> 100 µM (inactive)	> 100 µM (inactive)	> 100 µM (inactive)	> 100 µM (inactive)			
Cc1cc2c(C)n(Cc3ccc(Cl)cc3Cl)nc2c(C#N)c1C	> 100 µM (inactive)	41 µM (inactive)	13.6 µM (inactive)	> 100 µM	34.7 µM (inactive)	18.2 µM (inactive)	> 100 µM (inactive)	> 95.5 µM (inactive)	> 100 µM (inactive)	> 61.4 µM (inactive)	49.5 µM (inactive)	41.7 µM (inactive)	36 µM (inactive)	9.89 µM (inactive)	> 100 µM (inactive)	> 100 µM (inactive)			
O=C(Nc1ccc(Br)cc1)C(=O)C(C(=O)c1ccc(Cl)c(Cl)c1)C1OC(=O)c2ccccc21 (stereo unspecified)	17.3 µM (inactive)	18.5 µM (inactive)	15 µM (inactive)	20.9 µM	18.5 µM (inactive)	15.2 µM (inactive)	14.6 µM (inactive)	16.4 µM (inactive)	13.4 µM (inactive)		17.6 µM (inactive)	13.9 µM (inactive)	13.7 µM (inactive)	16.3 µM (inactive)	17.2 µM (inactive)	10 µM (inactive)			
C/C(=C\COP(=O)(O)OP(=O)(O)O)CC/C=C(\C)CNc1ccc([N+](=O)[O-])cc1	> 100 µM (inactive)	> 100 µM (inactive)	> 100 µM (inactive)	> 100 µM	> 100 µM (inactive)	> 100 µM (inactive)		> 100 µM (inactive)	> 100 µM (inactive)	> 100 µM (inactive)	> 100 µM (inactive)	> 100 µM (inactive)	> 100 µM (inactive)	> 100 µM (inactive)	> 100 µM (inactive)	> 100 µM (inactive)	> 100 µM (inactive)	> 100 µM (inactive)	> 100 µM (inactive)
Cc1c(/C=N\NC(=S)N2CCN(C(=S)N/N=C\c3c(C)n(C)n(-c4ccccc4)c3=O)CC2)c(=O)n(-c2ccccc2)n1C	47.9 µM (inactive)		40.9 µM (inactive)	46.9 µM	51.9 µM (inactive)	28.4 µM (inactive)	45.4 µM (inactive)	> 100 µM (inactive)	32.9 µM (inactive)	13.1 µM (inactive)		50.9 µM (inactive)		> 100 µM (inactive)			4.52 µM (inactive)	33 µM (inactive)	> 100 µM (inactive)
CCOC(=O)c1c(NC(=O)OC)c(C#N)c2n1CCCCC2	> 100 µM (inactive)	> 100 µM (inactive)	93.3 µM (inactive)	> 100 µM		> 100 µM (inactive)	> 100 µM (inactive)	> 100 µM (inactive)	> 100 µM (inactive)	> 100 µM (inactive)	> 100 µM (inactive)	> 100 µM (inactive)	> 100 µM (inactive)	> 100 µM (inactive)	> 100 µM (inactive)	> 100 µM (inactive)	> 100 µM (inactive)	> 100 µM (inactive)	> 100 µM (inactive)
O=S(=O)(c1ccc(NC(=S)N/N=C/c2ccccc2O)cc1)N1CCCCC1		1.73 µM (inactive)	12.2 µM (inactive)	< 0.01 µM	< 0.0498 µM (active)	0.0656 µM (active)		0.773 µM (active)	< 0.01 µM (active)	0.459 µM (active)	< 0.01 µM (active)	0.281 µM (active)	1.21 µM (inactive)			< 0.023 µM (active)	0.302 µM (active)	1.91 µM (inactive)	0.0676 µM (active)
Oc1nc2cc(Cl)ccc2nc1/C(=N\Nc1ccccc1)C(O)c1ccc(Cl)c(Cl)c1 (stereo unspecified)	> 100 µM (inactive)	> 100 µM (inactive)	> 100 µM (inactive)	> 100 µM	> 100 µM (inactive)	> 100 µM (inactive)	> 100 µM (inactive)	> 100 µM (inactive)	> 100 µM (inactive)	> 100 µM (inactive)	> 100 µM (inactive)	> 100 µM (inactive)		> 100 µM (inactive)	> 100 µM (inactive)	> 100 µM (inactive)			
Cc1csc2nc(-c3ccncc3)cn12	24.3 µM (inactive)	> 100 µM (inactive)	> 100 µM (inactive)	> 40.9 µM	> 100 µM (inactive)	> 100 µM (inactive)	> 100 µM (inactive)	> 45.5 µM (inactive)	> 100 µM (inactive)	> 100 µM (inactive)	> 43.4 µM (inactive)	> 100 µM (inactive)	> 100 µM (inactive)	> 49.4 µM (inactive)	> 36.3 µM (inactive)	> 42.1 µM (inactive)			
Nc1ncnc2c1sc(=S)n2-c1ccccc1	> 100 µM (inactive)	> 100 µM (inactive)	40.8 µM (inactive)	96.8 µM	> 100 µM (inactive)	> 100 µM (inactive)	> 100 µM (inactive)	> 100 µM (inactive)	> 100 µM (inactive)	> 100 µM (inactive)	> 100 µM (inactive)	> 100 µM (inactive)	> 100 µM (inactive)	> 100 µM (inactive)	> 100 µM (inactive)	> 100 µM (inactive)			
N#Cc1cc([N+](=O)[O-])ccc1NC(=O)C(F)(F)F	> 100 µM (inactive)	> 100 µM (inactive)	58.7 µM (inactive)	> 41.4 µM	> 100 µM (inactive)	> 100 µM (inactive)	> 100 µM (inactive)	20.7 µM (inactive)	> 100 µM (inactive)	> 100 µM (inactive)	> 34.7 µM (inactive)	> 100 µM (inactive)	> 100 µM (inactive)	> 100 µM (inactive)	> 57.1 µM (inactive)	> 84.7 µM (inactive)			
Cc1ccc(SC(C)/C=C/NNC2=NN=C(c3ccccc3)C(c3ccccc3)N2)cc1 (stereo unspecified)	11.5 µM (inactive)	31.1 µM (inactive)	20 µM (inactive)	26.9 µM	25.5 µM (inactive)	30.3 µM (inactive)	28 µM (inactive)	36.1 µM (inactive)	14.9 µM (inactive)	23.4 µM (inactive)	25.7 µM (inactive)	48.9 µM (inactive)	76.4 µM (inactive)	29.1 µM (inactive)	13 µM (inactive)	21.5 µM (inactive)			
COc1ccc(C2Oc3c(c(O)cc4c3[C@H](c3ccc(O)cc3O)[C@H](O)C(c3ccc(O)c(O)c3)O4)C[C@@H]2O)cc1O (stereo partly specified)	> 100 µM (inactive)	> 100 µM (inactive)	> 100 µM (inactive)	> 100 µM	> 100 µM (inactive)	> 100 µM (inactive)	> 100 µM (inactive)	> 100 µM (inactive)	> 100 µM (inactive)	> 100 µM (inactive)	> 100 µM (inactive)	> 100 µM (inactive)		> 100 µM (inactive)	> 100 µM (inactive)	> 100 µM (inactive)			
